Source: the NIST ThermoML archive (doi:10.1021/je060271a)
“And” between values parts separate entries of the source, which are not always exact repeats. Identical values can stand only once.

Details: 343.15 K, Liquid, Vibrating tube method

CCCCCC(=O)OCC(COC(=O)CCCCC)(COC(=O)CCCCC)COC(=O)CCCCC [pentaerythritol tetrahexanoate]
Details	mass density
203.8 kPa	957.2 kg/m3
203.9 kPa	957.2 kg/m3 and 957.1 kg/m3
204 kPa	957.1 kg/m3
204.1 kPa	957.1 kg/m3 and 957.2 kg/m3
204.3 kPa	957.2 kg/m3 and 957.3 kg/m3
204.5 kPa	957.2 kg/m3 and 957.3 kg/m3
204.6 kPa	957.2 kg/m3 and 957.3 kg/m3
204.8 kPa	957.3 kg/m3 [middle of 4 runs]
205 kPa	957.2 kg/m3 and 957.3 kg/m3
205.2 kPa	957.2 kg/m3
205.3 kPa	957.2 kg/m3 and 957.3 kg/m3
205.7 kPa	957.2 kg/m3
205.9 kPa	957.2 kg/m3
206 kPa	957.2 kg/m3
206.2 kPa	957.2 kg/m3
206.4 kPa	957.2 kg/m3
206.6 kPa	957.2 kg/m3 and 957.1 kg/m3
206.7 kPa	957.3 kg/m3 and 957.2 kg/m3
206.9 kPa	957.3 kg/m3 and 957.1 kg/m3
207.1 kPa	957.2 kg/m3
207.2 kPa	957.2 kg/m3
207.3 kPa	957.2 kg/m3
207.4 kPa	957.2 kg/m3
207.9 kPa	957.3 kg/m3
208.3 kPa	957.2 kg/m3
208.6 kPa	957.2 kg/m3 and 957.1 kg/m3
208.8 kPa	957.3 kg/m3 and 957.2 kg/m3
209 kPa	957.2 kg/m3
209.2 kPa	957.3 kg/m3 and 957.2 kg/m3
209.3 kPa	957.2 kg/m3 and 957.3 kg/m3 and 957.1 kg/m3
209.5 kPa	957.2 kg/m3
209.7 kPa	957.2 kg/m3
209.9 kPa	957.1 kg/m3 and 957.2 kg/m3
211.1 kPa	957.2 kg/m3
212.5 kPa	957.1 kg/m3
212.6 kPa	957.2 kg/m3 and 957.3 kg/m3
212.7 kPa	957.2 kg/m3
212.8 kPa	957.1 kg/m3 and 957.2 kg/m3
213 kPa	957.2 kg/m3
213.2 kPa	957.2 kg/m3
213.3 kPa	957.2 kg/m3
213.5 kPa	957.3 kg/m3 and 957.2 kg/m3
213.7 kPa	957.3 kg/m3 and 957.2 kg/m3 and 957.1 kg/m3
213.9 kPa	957.2 kg/m3 and 957.1 kg/m3 and 957.4 kg/m3
214.2 kPa	957.1 kg/m3
215.2 kPa	957.2 kg/m3
215.3 kPa	957.3 kg/m3
215.4 kPa	957.2 kg/m3 and 957.1 kg/m3 and 957.3 kg/m3
215.6 kPa	957.4 kg/m3 and 957.1 kg/m3 and 957.2 kg/m3
215.8 kPa	957.3 kg/m3
215.9 kPa	957.2 kg/m3
216 kPa	957.3 kg/m3
216.1 kPa	957.3 kg/m3 and 957.2 kg/m3
216.3 kPa	957.2 kg/m3 and 957.3 kg/m3
216.5 kPa	957.3 kg/m3 and 957.2 kg/m3
216.6 kPa	957.3 kg/m3
216.8 kPa	957.2 kg/m3 and 957.1 kg/m3
217.7 kPa	957.2 kg/m3 and 957.3 kg/m3
218 kPa	957.4 kg/m3
218.2 kPa	957.1 kg/m3 and 957.2 kg/m3
218.6 kPa	957.2 kg/m3
218.9 kPa	957.2 kg/m3
219.1 kPa	957.2 kg/m3
219.3 kPa	957.3 kg/m3
219.4 kPa	957.1 kg/m3 and 957.2 kg/m3 and 957.3 kg/m3
219.6 kPa	957.4 kg/m3
219.8 kPa	957.2 kg/m3
219.9 kPa	957.1 kg/m3
220 kPa	957.2 kg/m3
220.3 kPa	957.2 kg/m3
220.5 kPa	957.2 kg/m3
220.6 kPa	957.1 kg/m3
220.8 kPa	957.1 kg/m3
221 kPa	957.1 kg/m3
221.2 kPa	957.3 kg/m3
221.3 kPa	957.2 kg/m3
222.7 kPa	957.3 kg/m3
222.9 kPa	957.1 kg/m3
223.1 kPa	957.2 kg/m3
223.3 kPa	957.3 kg/m3 and 957.4 kg/m3
223.4 kPa	957.1 kg/m3 and 957.3 kg/m3 and 957.2 kg/m3
223.6 kPa	957.2 kg/m3
223.8 kPa	957.3 kg/m3
224.1 kPa	957.2 kg/m3
224.3 kPa	957.3 kg/m3 and 957.2 kg/m3
224.5 kPa	957.2 kg/m3 and 957.3 kg/m3 and 957.1 kg/m3
224.7 kPa	957.2 kg/m3
224.8 kPa	957.3 kg/m3 and 957.2 kg/m3
225.2 kPa	957.3 kg/m3
226.9 kPa	957.2 kg/m3 and 957.3 kg/m3
227.1 kPa	957.3 kg/m3
227.4 kPa	957.2 kg/m3
231.3 kPa	957.2 kg/m3 and 957.3 kg/m3
231.6 kPa	957.3 kg/m3 and 957.1 kg/m3
232 kPa	957.1 kg/m3 and 957.2 kg/m3
232.3 kPa	957.3 kg/m3 and 957.2 kg/m3
232.5 kPa	957.2 kg/m3
232.6 kPa	957.3 kg/m3
232.7 kPa	957.3 kg/m3
233 kPa	957.2 kg/m3
233.2 kPa	957.2 kg/m3
233.3 kPa	957.2 kg/m3
233.5 kPa	957.2 kg/m3
233.7 kPa	957.3 kg/m3
233.9 kPa	957.3 kg/m3
234 kPa	957.2 kg/m3 and 957.3 kg/m3
234.4 kPa	957.2 kg/m3
234.6 kPa	957.1 kg/m3 and 957.4 kg/m3 and 957.3 kg/m3
234.7 kPa	957.3 kg/m3
234.9 kPa	957.2 kg/m3
235.1 kPa	957.2 kg/m3
235.2 kPa	957.2 kg/m3
235.6 kPa	957.2 kg/m3
235.8 kPa	957.1 kg/m3
236 kPa	957.2 kg/m3
236.1 kPa	957.2 kg/m3 and 957.3 kg/m3
236.3 kPa	957.3 kg/m3
236.5 kPa	957.1 kg/m3
236.6 kPa	957.2 kg/m3
236.8 kPa	957.2 kg/m3
237 kPa	957.1 kg/m3 and 957.2 kg/m3 and 957.3 kg/m3
237.3 kPa	957.3 kg/m3
237.5 kPa	957.2 kg/m3
237.7 kPa	957.2 kg/m3 and 957.4 kg/m3
237.9 kPa	957.2 kg/m3
238 kPa	957.3 kg/m3
238.2 kPa	957.2 kg/m3
238.4 kPa	957.3 kg/m3
238.6 kPa	957.3 kg/m3
238.7 kPa	957.3 kg/m3
238.9 kPa	957.3 kg/m3
239.2 kPa	957.1 kg/m3
239.3 kPa	957.3 kg/m3
240.1 kPa	957.3 kg/m3
240.3 kPa	957.3 kg/m3
240.5 kPa	957.3 kg/m3 and 957.2 kg/m3
240.6 kPa	957.1 kg/m3
240.8 kPa	957.3 kg/m3
241.2 kPa	957.4 kg/m3
241.3 kPa	957.3 kg/m3 and 957.2 kg/m3
241.5 kPa	957.3 kg/m3 and 957.1 kg/m3
242 kPa	957.3 kg/m3
242.2 kPa	957.3 kg/m3
242.4 kPa	957.2 kg/m3
242.6 kPa	957.3 kg/m3
